Measurements published in US20240423207A1, “PICOLINAMIDE COMPOUNDS WITH FUNGICIDAL ACTIVITY” (CORTEVA AGRISCIENCE LLC, priority 2014, published 2024).

Experiments:
Type in all cases: in vivo
[1] = tested on: Rhyncosporium secalis; test: Barley Scald (RHYNSE) fungicidal activity on barley seedlings; conditions: Hordeum vulgare, 24 h, 1 Day Protectant, read-out: RHYNSE 1 DP disease control
Protocol: Technical grades of materials were dissolved in acetone, which were then mixed with nine volumes of water (H2O) containing 110 ppm Triton X-100. The fungicide solutions were applied onto wheat seedlings using an automated booth sprayer to run-off. All sprayed plants were allowed to air dry prior to further handling. All fungicides were evaluated using the aforementioned method for their activity vs. all target diseases, unless stated otherwise. Wheat leaf blotch and brown rust activity were also evaluated using track spray applications, in which case the fungicides were formulated as EC formulations, containing 0.1% Trycol 5941 in the spray solutions. Wheat plants (variety Yuma) were grown from seed in a greenhouse in 50% mineral soil/50% soil-less Metro mix until the first leaf was fully emerged, with 7-10 seedlings per pot. These plants were inoculated with an aqueous spore suspension of Septoria tritici either prior to or after fungicide treatments. After inoculation the plants were kept in 100% relative humidity (one day in a dark dew chamber followed by two to three days in a lighted dew chamber at 20° C.) to permit spores to germinate and infect the leaf. The plants were then transferred to a greenhouse set at 20° C. for disease to develop. When disease symptoms were fully expressed on the 1st leaves of untreated plants, infection levels were assessed on a scale of 0 to 100 percent disease severity. Percent disease control was calculated using the ratio of disease severity on treated plants relative to untreated plants. Example G: Evaluation of Fungicidal Activity: Barley Scald (Rhyncosporium secalis; Bayer code […]) Barley seedlings (variety Harrington) were propagated in soil-less Metro mix, with each pot having 8 to 12 plants, and used in the test when the first leaf was fully emerged. Test plants were inoculated by an aqueous spore suspension of Rhyncosporium secalis 24 h after fungicide treatments. After inoculation the plants were kept in a dew room at 20° C. with 100% relative humidity for 48 h. The plants were then transferred to a greenhouse set at 20° C. for disease to develop. Fungicide formulation, application and disease assessment on the sprayed leaves followed the procedures as described in the Example A.

[2] = tested on: Glomerella lagenarium; Anamorph: Colletotrichum lagenarium; test: Cucumber Anthracnose (COLLLA) fungicidal activity on cucumber seedlings; conditions: Colletotrichum orbiculare, 24 h, 1 Day Protectant, read-out: COLLLA 1 DP disease control
Protocol: Technical grades of materials were dissolved in acetone, which were then mixed with nine volumes of water (H2O) containing 110 ppm Triton X-100. The fungicide solutions were applied onto wheat seedlings using an automated booth sprayer to run-off. All sprayed plants were allowed to air dry prior to further handling. All fungicides were evaluated using the aforementioned method for their activity vs. all target diseases, unless stated otherwise. Wheat leaf blotch and brown rust activity were also evaluated using track spray applications, in which case the fungicides were formulated as EC formulations, containing 0.1% Trycol 5941 in the spray solutions. Wheat plants (variety Yuma) were grown from seed in a greenhouse in 50% mineral soil/50% soil-less Metro mix until the first leaf was fully emerged, with 7-10 seedlings per pot. These plants were inoculated with an aqueous spore suspension of Septoria tritici either prior to or after fungicide treatments. After inoculation the plants were kept in 100% relative humidity (one day in a dark dew chamber followed by two to three days in a lighted dew chamber at 20° C.) to permit spores to germinate and infect the leaf. The plants were then transferred to a greenhouse set at 20° C. for disease to develop. When disease symptoms were fully expressed on the 1st leaves of untreated plants, infection levels were assessed on a scale of 0 to 100 percent disease severity. Percent disease control was calculated using the ratio of disease severity on treated plants relative to untreated plants. Example J: Evaluation of Fungicidal Activity: Cucumber Anthracnose (Glomerella lagenarium; Anamorph: Colletotrichum lagenarium; Bayer code COLLLA) Cucumber seedlings (variety Bush Pickle) were propagated in soil-less Metro mix, with each pot having one plant, and used in the test when 12 to 14 days old. Test plants were inoculated with an aqueous spore suspension of Colletotrichum lagenarium 24 hr after fungicide treatments. After inoculation the plants were kept in a dew room at 22° C. with 100% relative humidity for 48 hr to permit spores to germinate and infect the leaf. The plants were then transferred to a growth room set at 22° C. for disease to develop. Fungicide formulation, application and disease assessment on the sprayed leaves followed the procedures as described in the Example A.

[3] = tested on: Alternaria solani; test: Tomato Early Blight (ALTESO) fungicidal activity on tomato plants; conditions: 24 h, 1 Day Protectant, read-out: ALTESO 1 DP disease control
Protocol: Technical grades of materials were dissolved in acetone, which were then mixed with nine volumes of water (H2O) containing 110 ppm Triton X-100. The fungicide solutions were applied onto wheat seedlings using an automated booth sprayer to run-off. All sprayed plants were allowed to air dry prior to further handling. All fungicides were evaluated using the aforementioned method for their activity vs. all target diseases, unless stated otherwise. Wheat leaf blotch and brown rust activity were also evaluated using track spray applications, in which case the fungicides were formulated as EC formulations, containing 0.1% Trycol 5941 in the spray solutions. Wheat plants (variety Yuma) were grown from seed in a greenhouse in 50% mineral soil/50% soil-less Metro mix until the first leaf was fully emerged, with 7-10 seedlings per pot. These plants were inoculated with an aqueous spore suspension of Septoria tritici either prior to or after fungicide treatments. After inoculation the plants were kept in 100% relative humidity (one day in a dark dew chamber followed by two to three days in a lighted dew chamber at 20° C.) to permit spores to germinate and infect the leaf. The plants were then transferred to a greenhouse set at 20° C. for disease to develop. When disease symptoms were fully expressed on the 1st leaves of untreated plants, infection levels were assessed on a scale of 0 to 100 percent disease severity. Percent disease control was calculated using the ratio of disease severity on treated plants relative to untreated plants. Example I: Evaluation of Fungicidal Activity: Tomato Early Blight (Alternaria solani; Bayer code […]) Tomato plants (variety Outdoor Girl) were propagated in soil-less Metro mix, with each pot having one plant, and used when 12 to 14 days old. Test plants were inoculated with an aqueous spore suspension of Alternaria solani 24 h after fungicide treatments. After inoculation the plants were kept in 100% relative humidity (one day in a dark dew chamber followed by two to three days in a lighted dew chamber at 20° C.) to permit spores to germinate and infect the leaf. The plants were then transferred to a growth room at 22° C. for disease to develop. Fungicide formulation, application and disease assessment on the sprayed leaves followed the procedures as described in the Example A.

Structure (SMILES)	pest or weed control at 100 ppm [1] [%]	pest or weed control at 100 ppm [2] [%]	pest or weed control at 100 ppm [3] [%]
COc1ccnc(C(=O)N[C@@H](C)C(=O)O[C@@H](C)C(c2ccccc2)c2ccccc2)c1OC(C)=O [Cmpd 139, (S)-(S)-1,1-diphenylpropan-2-yl 2-(3-acetoxy-4-methoxypicolinamido)propanoate]	> 80	> 80	< 80
COc1ccnc(C(=O)N[C@@H](C)C(=O)O[C@@H](C)C(c2ccccc2)c2ccccc2)c1OC(=O)C(C)C [Cmpd 140]	–	> 80	> 80
COc1ccnc(C(=O)N[C@@H](C)C(=O)O[C@@H](C)C(c2ccccc2)c2ccccc2)c1OCOC(C)=O [Cmpd 141, (S)-(S)-1,1-diphenylpropan-2-yl 2-(3-(acetoxymethoxy)-4-methoxypicolinamido)propanoate]	> 80	> 80	< 80
COc1ccnc(C(=O)N[C@@H](C)C(=O)O[C@@H](C)C(c2ccccc2)c2ccccc2)c1OCOC(=O)C(C)C [Cmpd 142, (S)-(S)-1,1-diphenylpropan-2-yl 2-(3-((isobutyryloxy)methoxy)-4-methoxypicolinamido)propanoate]	> 80	> 80	> 80
COc1ccnc(C(=O)N[C@@H](C)C(=O)O[C@@H](C)C(c2ccc(F)cc2)c2ccc(F)cc2)c1OC(C)=O [Cmpd 145]	> 80	> 80	> 80
COc1ccnc(C(=O)N[C@@H](C)C(=O)O[C@@H](C)C(c2ccc(F)cc2)c2ccc(F)cc2)c1OCOC(C)=O [Cmpd 146]	> 80	> 80	> 80
COc1ccnc(C(=O)N[C@@H](C)C(=O)O[C@@H](C)C(c2ccc(F)cc2F)c2ccc(F)cc2F)c1OCOC(C)=O [Cmpd 148]	> 80	> 80	< 80
COc1ccnc(C(=O)N[C@@H](C)C(=O)O[C@@H](C)C(c2ccc(F)cc2F)c2ccc(F)cc2F)c1OC(C)=O [Cmpd 150]	> 80	> 80	> 80
COc1ccnc(C(=O)N[C@@H](C)C(=O)O[C@@H](C)C(c2ccc(Cl)cc2)c2ccc(Cl)cc2)c1OC(C)=O [Cmpd 174]	> 80	> 80	< 80
COc1ccnc(C(=O)N[C@@H](C)C(=O)O[C@@H](C)C(c2ccc(Cl)cc2)c2ccc(Cl)cc2)c1OCOC(C)=O [Cmpd 176]	> 80	> 80	< 80
